Where only a bound is given, the exact number is not on record here.

The test system of one assay is Escherichia coli (ATCC25922) or Staphylococcus aureus (ATCC25923). Nature of the assay: Antibacterial MIC, microdilution method in Mueller-Hinton medium. Format: cell-based. The following applies: Escherichia coli, 18 h, MIC in E. coli or S. aureus; two-fold serial dilutions 64 to 0.5 μg/ml in duplicate; 18 hours of incubation at 35° C.; read-out: Potency (MIC). The essentials: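 Read after 18 h incubation at 35° C, MIC is the lowest compound level that blocked growth. Compounds were tested in duplicate over 64–0.5 μg/ml two-fold dilutions using Mueller-Hinton microdilution per NCCLS standard.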
(In general: Dilution methods test growth across graded concentrations, often in twofold steps.)
Usually MIC stands for the lowest concentration found to suppress growth. In the case of `COc1ccc(Nc2ccc(NC(=O)CC(=O)c3ccc(Nc4nc(N5CCCCC5)nc(N5CCCCC5)n4)cc3)cc2)cc1` [N-{4-[2-(4-methoxy-phenylcarbamoyl)-acetyl]-phenyl}-44,6-Bis-((3R,5S)-3,5-diamino-piperidin-1-yl)-[1,3,5]triazine-2-amine], the MIC is below 16 µg/mL.

As to `Cl.NS(=O)(=O)c1ccc(NC(=O)CC(=O)c2ccc(Nc3nc(N4CCCCC4)nc(N4CCCCC4)n3)cc2)cc1` [N-{4-[2-(4-sulfamoyl-phenylcarbamoyl)-acetyl]-phenyl}-44,6-Bis-((3R,5S)-3,5-diamino-piperidin-1-yl)-[1,3,5]triazine-2-amine], the MIC was below 64 µg/mL.

Regarding `Cl.O=C(CC(=O)c1ccc(Nc2nc(N3CCCCC3)nc(N3CCCCC3)n2)cc1)Nc1ccc(-c2ccccc2)cc1` [N-{4-[2-(biphenyl-44-ylcarbamoyl)-acetyl]-phenyl}-44,6-Bis-((3R,5S)-3,5-diamino-piperidin-1-yl)-[1,3,5]triazine-2-amine], the MIC is below 16 µg/mL.

On to `COC(=O)CC(=O)Nc1ccc(Nc2nc(N3C[C@H](N)C[C@H](N)C3)nc(N3C[C@H](N)C[C@H](N)C3)n2)cc1O` [N-{4-[4,6-Bis-((3R,5S)-3,5-diamino-piperidin-1-yl)-[1,3,5]triazin-2-ylamino]-2-hydroxy-phenyl}-malonamic acid methylester], for which the MIC is above 64 µg/mL.

Consider `N[C@@H]1C[C@H](N)CN(c2nc(Nc3ccc(NC(=O)c4ccc(N5Cc6ccccc6C5)cc4O)cc3)nc(N3C[C@H](N)C[C@H](N)C3)n2)C1` [N-{4-[4-(1,3-dihydro-isoindol-2-yl)-2-hydroxy-benzoylamino]-phenyl}-4,6-Bis-((3R,5S)-3,5-diamino-piperidin-1-yl)-[1,3,5]triazine-2-amine], for which the MIC is below 16 µg/mL.

For the compound `CC(C)(C)C(=O)Nc1ccc(S(=O)(=O)Nc2ccc(Nc3nc(N4C[C@H](N)C[C@H](N)C4)nc(N4C[C@H](N)C[C@H](N)C4)n3)cc2O)cc1.Cl` [N-{4-[4-(2,2-dimethyl-propionylamino)-benzenesulfonylamino]-3-hydroxy-phenyl}-4,6-Bis-((3R,5S)-3,5-diamino-piperidin-1-yl)-[1,3,5]triazine-2-amine], the MIC was above 64 µg/mL.

Regarding `CC1=NN(c2ccc(Nc3nc(N4C[C@H](N)C[C@H](N)C4)nc(N4C[C@H](N)C[C@H](N)C4)n3)cc2)C(=O)C1CCO` (stereo partly drawn) [N-{4-[4-(2-hydroxy-ethyl)-3-methyl-5-oxo-4,5-dihydro-pyrazol-1-yl]-phenyl}-4,6-Bis-((3R,5S)-3,5-diamino-piperidin-1-yl)-[1,3,5]triazine-2-amine], the MIC is above 64 µg/mL.

Consider `Cc1ccc(C(=O)Nc2ccc(Nc3nc(N4CC(N)C4)nc(N4C[C@H](N)C[C@H](N)C4)n3)cc2O)cc1.Cl` [N-{4-[4-(3-Amino-azetidin-1-yl)-6-((3R,5S)-3,5-diamino-piperidin-1-yl)-[1,3,5]triazin-2-ylamino]-2-hydroxy-phenyl}-4-methyl-benzamide], for which the MIC is below 64 µg/mL.

Still in this assay, the particulars now being: Escherichia coli, 18 h, read-out: Potency (MIC).
Turning to `N[C@@H]1C[C@H](N)CN(c2nc(Nc3ccc(C(=O)CC(=O)Nc4ccc(Cl)cc4)cc3)nc(N3C[C@H](N)C[C@H](N)C3)n2)C1` [N-{4-[2-(4-chloro-phenylcarbamoyl)-acetyl]-phenyl}-4,6-Bis-((3R,5S)-3,5-diamino-piperidin-1-yl)-[1,3,5]triazine-2-amine], the minimum inhibitory concentration (MIC) was below 16 µg/mL.

Take `N[C@@H]1C[C@H](N)CN(c2nc(Nc3ccc(C(=O)CC(=O)Nc4ccc(F)cc4)cc3)nc(N3C[C@H](N)C[C@H](N)C3)n2)C1` [N-{4-[2-(4-fluoro-phenylcarbamoyl)-acetyl]-phenyl}-4,6-Bis-((3R,5S)-3,5-diamino-piperidin-1-yl)-[1,3,5]triazine-2-amine]: the MIC was below 16 µg/mL.

As to `N[C@@H]1C[C@H](N)CN(c2nc(Nc3ccc(C(=O)CC(=O)Nc4ccc(SC(F)(F)F)cc4)cc3)nc(N3C[C@H](N)C[C@H](N)C3)n2)C1` [N-{4-[2-(4-trifluoromethylsulfanyl-phenylcarbamoyl)-acetyl]-phenyl}-4,6-Bis-((3R,5S)-3,5-diamino-piperidin-1-yl)-[1,3,5]triazine-2-amine], the MIC is below 16 µg/mL.

As to `N[C@@H]1C[C@H](N)CN(c2nc(Nc3ccc(NC(=O)c4ccc(N5Cc6ccccc6C5)cc4O)c(O)c3)nc(N3C[C@H](N)C[C@H](N)C3)n2)C1` [N-{4-[4-(1,3-dihydro-isoindol-2-yl)-2-hydroxy-benzoylamino]-3-hydroxy-phenyl}-4,6-Bis-((3R,5S)-3,5-diamino-piperidin-1-yl)-[1,3,5]triazine-2-amine], the MIC is below 64 µg/mL.

Regarding `CCCCCC(CC)C(=O)Nc1ccc(S(=O)(=O)Nc2ccc(Nc3nc(N4C[C@H](N)C[C@H](N)C4)nc(N4C[C@H](N)C[C@H](N)C4)n3)cc2O)cc1` (stereo partly drawn) [N-{4-[4-(2-ethyl-heptanoylamino)-benzenesulfonylamino]-3-hydroxy-phenyl}-4,6-Bis-((3R,5S)-3,5-diamino-piperidin-1-yl)-[1,3,5]triazine-2-amine], the MIC is below 16 µg/mL.

Turning to `NC1CN(c2nc(Nc3ccc(NC(=O)c4ccc(Cl)cc4)c(O)c3)nc(N3C[C@H](N)C[C@H](N)C3)n2)C1` [N-{4-[4-(3-Amino-azetidin-1-yl)-6-((3R,5S)-3,5-diamino-piperidin-1-yl)-[1,3,5]triazin-2-ylamino]-2-hydroxy-phenyl}-4-chloro-benzamide], the MIC was below 16 µg/mL.

In the case of `NC[C@H]1[C@@H](O)CCN1c1nc(Nc2ccc(NC(=O)c3ccc(Cl)cc3)c(O)c2)nc(N2C[C@H](N)C[C@H](N)C2)n1` [N-{4-[4-((2S,3S)-2-Aminomethyl-3-hydroxy-pyrrolidin-1-yl)-6-((3R,5S)-3,5-diamino-piperidin-1-yl)-[1,3,5]triazin-2-ylamino]-2-hydroxy-phenyl}-4-chloro-benzamide], the minimal inhibitory concentration (MIC) was below 64 µg/mL.

As for `Cc1ccc(C(=O)Nc2ccc(Nc3nc(N4C[C@H](N)C[C@H](N)C4)nc(N4CC[C@H](O)[C@@H]4CN)n3)cc2O)cc1` [N-{4-[4-((2S,3S)-2-Aminomethyl-3-hydroxy-pyrrolidin-1-yl)-6-((3R,5S)-3,5-diamino-piperidin-1-yl)-[1,3,5]triazin-2-ylamino]-2-hydroxy-phenyl}-4-methyl-benzamide], the MIC was below 16 µg/mL.

Regarding `Cc1ccc(S(=O)(=O)N(Cc2ccccc2)c2ccc(Nc3nc(N4C[C@H](N)C[C@H](N)C4)nc(N4C[C@H](O)C[C@H]4CN)n3)cc2O)cc1` [N-{4-[4-((2S,4R)-2-Aminomethyl-4-hydroxy-pyrrolidin-1-yl)-6-((3R,5S)-3,5-diamino-piperidin-1-yl)-[1,3,5]triazin-2-ylamino]-2-hydroxy-phenyl}-N-benzyl-4-methyl-benzenesulfonamide], the MIC is below 64 µg/mL.

With `NC[C@@H]1C[C@H](N)CN1c1nc(Nc2ccc(NC(=O)c3ccc(O)cc3O)c(O)c2)nc(N2C[C@H](N)C[C@H](N)C2)n1` [N-{4-[4-((2S,4S)-4-Amino-2-aminomethyl-pyrrolidin-1-yl)-6-((3R,5S)-3,5-diamino-piperidin-1-yl)-[1,3,5]triazin-2-ylamino]-2-hydroxy-phenyl}-2,4-dihydroxy-benzamide], the MIC is below 16 µg/mL.

In the case of `NC[C@@H]1C[C@H](N)CN1c1nc(Nc2ccc(NC(=O)c3ccc(Cl)cc3O)c(O)c2)nc(N2C[C@H](N)C[C@H](N)C2)n1` [N-{4-[4-((2S,4S)-4-Amino-2-aminomethyl-pyrrolidin-1-yl)-6-((3R,5S)-3,5-diamino-piperidin-1-yl)-[1,3,5]triazin-2-ylamino]-2-hydroxy-phenyl}-4-chloro-2-hydroxy-benzamide], the minimum inhibitory concentration (MIC) is below 16 µg/mL.

As for `NC[C@@H]1C[C@H](N)CN1c1nc(Nc2ccc(NC(=O)c3ccc(Cl)cc3)c(O)c2)nc(N2C[C@H](N)C[C@H](N)C2)n1` [N-{4-[4-((2S,4S)-4-Amino-2-aminomethyl-pyrrolidin-1-yl)-6-((3R,5S)-3,5-diamino-piperidin-1-yl)-[1,3,5]triazin-2-ylamino]-2-hydroxy-phenyl}-4-chloro-benzamide], the MIC is below 16 µg/mL.

For the compound `Cc1ccc(C(=O)Nc2ccc(Nc3nc(N4C[C@H](N)C[C@H](N)C4)nc(N4C[C@@H](N)C[C@H]4CN)n3)cc2O)cc1` [N-{4-[4-((2S,4S)-4-Amino-2-aminomethyl-pyrrolidin-1-yl)-6-((3R,5S)-3,5-diamino-piperidin-1-yl)-[1,3,5]triazin-2-ylamino]-2-hydroxy-phenyl}-4-methyl-benzamide], the MIC was below 64 µg/mL.

Turning to `Cc1ccc(S(=O)(=O)N(Cc2ccccc2)c2ccc(Nc3nc(N4C[C@H](N)C[C@H](N)C4)nc(N4C[C@@H](N)C[C@H]4CN)n3)cc2O)cc1` [N-{4-[4-((2S,4S)-4-Amino-2-aminomethyl-pyrrolidin-1-yl)-6-((3R,5S)-3,5-diamino-piperidin-1-yl)-[1,3,5]triazin-2-ylamino]-2-hydroxy-phenyl}-N-benzyl-4-methyl-benzenesulfonamide], the MIC was below 64 µg/mL.

Turning to `N[C@@H]1C[C@H](N)CN(c2nc(Nc3ccc(NC(=O)c4ccc(Cl)cc4)c(O)c3)nc(N3C[C@@H](N)C[C@H]3CO)n2)C1` [N-{4-[4-((2S,4S)-4-Amino-2-hydroxymethyl-pyrrolidin-1-yl)-6-((3R,5S)-3,5-diamino-piperidin-1-yl)-[1,3,5]triazin-2-ylamino]-2-hydroxy-phenyl}-4-chloro-benzamide], the MIC was below 64 µg/mL.

For the compound `Cc1ccc(S(=O)(=O)N(Cc2ccccc2)c2ccc(Nc3nc(N4C[C@H](N)C[C@H](N)C4)nc(N4C[C@@H](N)C[C@H]4CO)n3)cc2O)cc1` [N-{4-[4-((2S,4S)-4-Amino-2-hydroxymethyl-pyrrolidin-1-yl)-6-((3R,5S)-3,5-diamino-piperidin-1-yl)-[1,3,5]triazin-2-ylamino]-2-hydroxy-phenyl}-N-benzyl-4-methyl-benzenesulfonamide], the MIC was below 64 µg/mL.

These data come from US7223759B2, “Antibacterial 3,5-diaminopiperidine-substituted aromatic and heteroaromatic compounds” (Anadys Pharmaceuticals, Inc., priority 2003, dated 2007).
